# In PubChem BioAssay AID2202554 (NIEHS Division of Translational Toxicology (DTT)):
# Records with an inconclusive call do not appear. Activity calls are given as the source filed them. How the calls were made is not given here.
# Tested on: S. typhimurium/E. coli reverse mutation, colony counts
# Experiment: Bacterial reverse mutation test (aka Ames test) summary data
# How it was run: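 Revertant colony counts on plates, compared with untreated controls, after about two days of growth. Exposure with or without liver S9 (rat/hamster/mouse), dose range per strain, 20-min 37° C preincubation or direct plate incorporation. Strains: his⁻ Salmonella, trp⁻ E. coli WP2 uvrA pKM101.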
row,SMILES,outcome
1,CCc1nc(N)nc(N)c1-c1ccc(Cl)cc1,inactive; negative
2,CCC(C)O (centres undefined),inactive; negative
3,CCCCNC(=O)n1c(NC(=O)OC)nc2ccccc21,inactive; negative
4,C=C(C)C1CC=C(C)C(O)C1 (centres undefined),inactive; negative
5,ClCC(Cl)(Cl)Cl,inactive; negative
6,S=C1NCCN1,active; weakly positive
7,Cc1ccc(C(C)(C)O)cc1,inactive; negative
8,ICCc1ccccc1,inactive; negative
9,O=[N+]([O-])c1c(Cl)cc(Cl)cc1Cl,inactive; negative
10,N=C1N=C(N)c2ccccc21,active; positive
11,C=C(C)[C@H]1CC=C(C)C(=O)C1,inactive; negative
12,Nc1ccccn1,inactive; negative
13,Cc1ccc(C#N)cc1,inactive; negative
14,O=[N+]([O-])c1ccccc1Nc1ccccc1,inactive; negative
15,CC(C)(c1cc(Br)c(O)c(Br)c1)c1cc(Br)c(O)c(Br)c1,inactive; negative
16,Brc1ccc(-c2ccccc2)cc1,inactive; negative
17,Oc1cccc2cccnc12,active; positive
18,C=CCC,inactive; negative
19,CCCOC(=O)c1cc(O)c(O)c(O)c1,inactive; negative
20,CC(=O)C=Cc1ccc2c(c1)OCO2,inactive; negative
21,OC[P+](CO)(CO)CO,inactive; negative
22,C=C(C)[C@H]1CC=C(C)CC1,inactive; negative
23,CCCCCCCCCCCCCOC(=O)c1ccccc1C(=O)OCCCCCCCCCCCCC,inactive; negative
24,OC1CCCCC1,inactive; negative

row,SMILES,outcome
1,CC(CCC(=O)O)(c1ccc(O)cc1)c1ccc(O)cc1,inactive; negative
2,CC(=O)C(C)=O,active; positive
3,Brc1cc(Br)c(Oc2cc(Br)c(Br)cc2Br)cc1Br,inactive; negative
4,C[C@@H]1[C@H](O)[C@@H](C)/C=C/C=C/C=C/C=C/C=C/C=C/C=C/[C@H](O[C@@H]2O[C@H](C)[C@@H](O)[C@H](N)[C@@H]2O)C[C@@H]2O[C@](O)(C[C@@H](O)C[C@@H](O)[C@H](O)CC[C@@H](O)C[C@@H](O)CC(=O)O[C@H]1C)C[C@H](O)[C@H]2C(=O)O,inactive; negative
5,OCC(Br)CBr (centres undefined),active; positive
6,CCOCCOC(=O)C=Cc1ccc(OC)cc1,inactive; negative
7,CCOC(C=C(C)CCC=C(C)C)OCC,active; positive
8,O=C(Nc1ccccc1SSc1ccccc1NC(=O)c1ccccc1)c1ccccc1,inactive; negative
9,CCCl,active; positive
10,N#CCCC#N,inactive; negative
11,CN(C)C,inactive; negative
12,C[C@H]1CCCC(=O)CCC/C=C/c2cc(O)cc(O)c2C(=O)O1,inactive; negative
13,O=C1CN(N=Cc2ccc([N+](=O)[O-])o2)C(=O)N1,active; positive
14,Cc1ccc2c(ccc3ccccc32)c1,active; positive
15,NC(=O)c1cnccn1,inactive; negative
16,Cc1ccc2c(c1[N+](=O)[O-])C(=O)c1ccccc1C2=O,active; positive
17,C=C(C)C(=O)OCC(Br)CBr (centres undefined),active; positive
18,c1ccc(Nc2ccc3ccccc3c2)cc1,inactive; negative
19,CCCCOB(OCCCC)OCCCC,inactive; negative
20,CC1(C)CC(N=C=O)CC(C)(CN=C=O)C1 (centres undefined),inactive; negative
21,CC(C)(C)OOC(C)(C)CCC(C)(C)OOC(C)(C)C,inactive; negative
22,CC(=O)c1c(=O)cc(C)oc1=O,inactive; negative
23,NC(=Nc1ccccc1)Nc1ccccc1,active; weakly positive
24,CN(C)CCN(Cc1cccs1)c1ccccn1,inactive; negative

row,SMILES,outcome
1,Nc1c(N=Nc2ccc(-c3ccc(N=Nc4ccc(O)cc4)cc3)cc2)c(S(=O)(=O)O)cc2cc(S(=O)(=O)O)c(N=Nc3ccccc3)c(O)c12,active; positive
2,O=c1[nH]cnc2[nH]ncc12,active; weakly positive
3,C(=C\c1ccccc1)/c1ccccc1,inactive; negative
4,COc1ccc(C(=O)/C(Br)=C\C(=O)O)cc1,active; positive
5,Cc1cc(C(C)(C)C)c(O)c(C(C)(C)C)c1,inactive; negative
6,CCN(CC)CC,inactive; negative
7,NC(=O)NNC(N)=O,inactive; negative
8,Cc1cc(C(=O)O)ccc1[N+](=O)[O-],active; positive
9,CCCCC(CC)COC(=O)c1ccc(N(C)C)cc1 (centres undefined),inactive; negative
10,CCOC(=O)CC(C)O (centres undefined),inactive; negative
11,O=Cc1cccc(Br)c1,inactive; negative
12,CCOC(=O)CBr,active; positive
13,O=C(O)/C=C\C(=O)O,inactive; negative
14,C=CCN(CC=C)CC=C,inactive; negative
15,CC(CO)[N+](=O)[O-] (centres undefined),inactive; negative
16,CCn1c2ccccc2c2cc(N)ccc21,active; positive
17,[CH3][Sn]([CH3])([F])[F],inactive; negative
18,NC1NC=CS1 (centres undefined),active; positive
19,CCCCC(CC)COC(=O)C(C#N)=C(c1ccccc1)c1ccccc1 (centres undefined),inactive; negative
20,CC(=O)OCCOCCOCCOC(C)=O,active; positive
21,CCOP(=S)(OCC)Oc1ccc([N+](=O)[O-])cc1,active; weakly positive
22,CCCCCC[C@@H](O)C/C=C\CCCCCCCC(=O)O,inactive; negative
23,O=C(O)c1ccc2c(c1)C(=O)OC2=O,inactive; negative
24,ClCCOCCCl,active; weakly positive

row,SMILES,outcome
1,[Cl-].[Cl-].[Hg+2],inactive; negative
2,CCCCCCC(=O)OCC,inactive; negative
3,ClC(Cl)Br,inactive; negative
4,NC(=O)c1ccccc1C(N)=O,inactive; negative
5,O=C(O)c1ccccc1,inactive; negative
6,Nc1ccc2ccccc2c1N=Nc1ccc([N+](=O)[O-])cc1,active; positive
7,Cc1ccc(C)cc1,inactive; negative
8,Cc1ccc(NC(N)=O)cc1,inactive; negative
9,O=S(=O)(O)c1ccc(N=Nc2c(O)ccc3cc(S(=O)(=O)O)ccc23)cc1,inactive; negative
10,O=Cc1ccc(Cl)c(Cl)c1,inactive; negative
11,Nc1ccc(N)c2c1C(=O)c1c(N)ccc(N)c1C2=O,active; positive
12,Nc1nc(-c2ccccc2)cs1,active; positive
13,Cn1c(-c2ccccc2)c(N=Nc2scc[n+]2C)c2ccccc21,active; positive
14,NNC(N)=O,inactive; negative
15,CC[C@H]1OC(=O)[C@H](C)[C@@H](O[C@H]2C[C@@](C)(OC)[C@@H](O)[C@H](C)O2)[C@H](C)[C@@H](O[C@@H]2O[C@H](C)C[C@H](N(C)C)[C@H]2O)[C@](C)(OC)C[C@@H](C)C(=O)[C@H](C)[C@@H](O)[C@]1(C)O,inactive; negative
16,CC(=O)OC(C(=O)c1ccccc1)c1ccccc1 (centres undefined),inactive; negative
17,CC(=O)c1ccccc1[N+](=O)[O-],inactive; negative
18,c1ccc2c(c1)Oc1ccccc1S2,inactive; negative
19,Oc1cc2c(cc1O)[C@@H]1c3ccc(O)c(O)c3OC[C@]1(O)C2,inactive; negative
20,COc1ccc(N)c(C)c1,active; positive
21,N#Cc1ccccc1,inactive; negative
22,CCCCCC(=O)O,inactive; negative
23,COCCO,inactive; negative
24,Nc1ccc(N=Nc2ccccc2)c(N)n1,active; positive

row,SMILES,outcome
1,N[C@@H](CCC(=O)O)C(=O)O,inactive; negative
2,Cc1cc(O)c(C(C)(C)C)cc1Sc1cc(C(C)(C)C)c(O)cc1C,inactive; negative
3,[O-][n+]1ccccc1SSc1cccc[n+]1[O-],inactive; negative
4,CCCCC(CC)COC(=O)c1ccc(C(=O)OCC(CC)CCCC)c(C(=O)OCC(CC)CCCC)c1 (centres undefined),inactive; negative
5,NO,active; weakly positive
6,CCOc1cc(C=O)ccc1O,inactive; negative
7,ClC(Cl)(Cl)CC1CO1 (centres undefined),active; positive
8,OCC(Cl)Cl,active; weakly positive
9,CN(C)c1ccc(C2(c3ccc(N(C)C)cc3)OC(=O)c3cc(N(C)C)ccc32)cc1,inactive; negative
10,C[C@@H]1C[C@@H]([C@H](O)CC2CC(=O)NC(=O)C2)C(=O)[C@@H](C)C1,inactive; negative
11,O=C(O)C1=NN(c2ccc(S(=O)(=O)O)cc2)C(=O)C1N=Nc1ccc(S(=O)(=O)[O-])cc1.O=C(O)C1=NN(c2ccc(S(=O)(=O)O)cc2)C(=O)C1N=Nc1ccc(S(=O)(=O)[O-])cc1.O=C(O)C1=NN(c2ccc(S(=O)(=O)O)cc2)C(=O)C1N=Nc1ccc(S(=O)(=O)[O-])cc1.[Al+3] (centres undefined),inactive; negative
12,Nc1cc(S(=O)(=O)O)cc2cc(S(=O)(=O)O)c(N=Nc3ccc(-c4ccc(N=Nc5c(S(=O)(=O)O)cc6cc(S(=O)(=O)O)cc(N)c6c5O)cc4)cc3)c(O)c12,inactive; negative
13,Cc1ccc(O)cc1,inactive; negative
14,COC(F)(F)C(Cl)Cl,inactive; negative
15,CC(C)=CCCC(C)CCO (centres undefined),inactive; negative
16,c1ccc2n[nH]nc2c1,active; weakly positive
17,ClC(Cl)=C(Cl)Cl,inactive; negative
18,CC1CCCCC1CO (centres undefined),inactive; negative
19,O=S(=O)(O)C(F)(F)C(F)(F)C(F)(F)C(F)(F)C(F)(F)C(F)(F)C(F)(F)C(F)(F)F,inactive; negative
20,CC(O)COC(C)(C)C (centres undefined),active; positive
21,CCOC(=O)C1OC1c1ccccc1 (centres undefined),inactive; negative
22,CCCC[n+]1ccccc1,inactive; negative
23,O=C1C(c2[nH]c3ccc(S(=O)(=O)O)cc3c2O)=Nc2ccc(S(=O)(=O)O)cc21,active; positive
